Results: ChEMBL document CHEMBL1201862, “PubChem BioAssay data set” (2004)
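Assay format: 96-well plates, 48-hour exposure. Here, GI50 denotes the concentration required for 50% inhibition of growth.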 The source made the active and inactive calls. Rule as the data show it: active = GI50 up to about 1.1 µM and inactive = higher.

How the values were obtained:
Experiment in all cases: DTP human tumour cell line panel, 48 h
[1] = test system: SK-MEL-28
[2] = test system: DMS-273
[3] = test system: SK-OV-3
[4] = test system: HL-60
[5] = test system: IGROV-1
[6] = test system: U-251
[7] = test system: A549
[8] = test system: OVCAR-3
[9] = test system: SK-MEL-5
[10] = test system: HCT-15
[11] = test system: DLD-1
[12] = test system: SNB-19
[13] = test system: EKVX
[14] = test system: SF-539
[15] = test system: HOP-62
[16] = test system: SF-295
[17] = test system: M19-MEL
[18] = test system: NCI-H460
[19] = test system: TK-10
[20] = test system: 786-0
[21] = test system: LXFL 529
[22] = test system: OVCAR-8
[23] = test system: SW-620
[24] = test system: SN12C
[25] = test system: COLO 205
[26] = test system: HOP-18
[27] = test system: LOX IMVI
[28] = test system: ACHN
[29] = test system: KM-20L2
[30] = test system: RXF 631
[31] = test system: HCT-116
[32] = test system: CCRF-CEM
[33] = test system: RPMI-8226
[34] = test system: M14
[35] = test system: UACC-257
[36] = test system: A498
[37] = test system: MOLT-4
[38] = test system: HCC 2998
[39] = test system: UACC-62
[40] = test system: NCI-H23
[41] = test system: OVCAR-4
[42] = test system: RXF 393
[43] = test system: SNB-75
[44] = test system: HT-29
[45] = test system: DMS-114
[46] = test system: XF498
[47] = test system: CAKI-1
[48] = test system: SNB-78
[49] = test system: SR
[50] = test system: SK-MEL-2
[51] = test system: PC-3
[52] = test system: DU-145
[53] = test system: MCF7
[54] = test system: OVCAR-5
[55] = test system: NCI/ADR-RES
[56] = test system: MDA-MB-435
[57] = test system: MDA-MB-231
[58] = test system: HOP-92
[59] = test system: K562
[60] = test system: T47D
[61] = test system: Hs-578T
[62] = test system: NCI-H226
[63] = test system: BT-549
[64] = test system: Malme-3M
[65] = test system: SF-268
[66] = test system: UO-31
[67] = test system: NCI-H522

## COc1ccc2c(c1OCC(=O)O)C(=O)C(CCC(=O)O)CC2 (stereo not given)
[1]
  GI50: > 100 µM (inactive)
[2]
  GI50: > 100 µM (inactive)
[3]
  GI50: > 100 µM (inactive)
[4]
  GI50: > 100 µM (inactive)
[5]
  GI50: > 100 µM (inactive)
[6]
  GI50: > 100 µM (inactive)
[7]
  GI50: > 100 µM (inactive)
[8]
  GI50: > 100 µM (inactive)
[9]
  GI50: > 100 µM (inactive)
[10]
  GI50: > 100 µM
[11]
  GI50: > 100 µM (inactive)
[12]
  GI50: > 100 µM (inactive)
[13]
  GI50: > 100 µM (inactive)
[14]
  GI50: > 100 µM (inactive)
[15]
  GI50: > 100 µM (inactive)
[16]
  GI50: > 100 µM (inactive)
[17]
  GI50: > 100 µM (inactive)
[18]
  GI50: > 100 µM (inactive)
[19]
  GI50: > 10 µM (inactive)
[20]
  GI50: > 100 µM (inactive)
[21]
  GI50: > 100 µM (inactive)
[22]
  GI50: > 100 µM (inactive)
[23]
  GI50: > 100 µM (inactive)
[24]
  GI50: > 100 µM (inactive)
[25]
  GI50: > 100 µM (inactive)
[26]
  GI50: > 100 µM (inactive)
[27]
  GI50: > 100 µM (inactive)
[28]
  GI50: > 100 µM (inactive)
[29]
  GI50: > 100 µM (inactive)
[30]
  GI50: > 100 µM (inactive)
[31]
  GI50: > 100 µM (inactive)
[32]
  GI50: > 100 µM (inactive)
[33]
  GI50: > 100 µM (inactive)
[34]
  GI50: > 100 µM (inactive)
[35]
  GI50: > 100 µM (inactive)
[36]
  GI50: > 100 µM (inactive)
[37]
  GI50: > 100 µM (inactive)
[38]
  GI50: > 100 µM (inactive)
[39]
  GI50: > 100 µM (inactive)
[40]
  GI50: > 100 µM (inactive)
[41]
  GI50: > 100 µM (inactive)
[42]
  GI50: > 100 µM (inactive)
[43]
  GI50: > 100 µM (inactive)
[44]
  GI50: > 100 µM (inactive)
[45]
  GI50: > 100 µM (inactive)
[46]
  GI50: 71.1 µM (inactive)
[47]
  GI50: > 100 µM (inactive)
[48]
  GI50: > 100 µM (inactive)

## CCC1(O)C(=O)OCc2c1cc1n(c2=O)Cc2cc3cc4c(cc3nc2-1)OCO4 (stereo not given)
[1]
  GI50: 0.112 µM (active)
[2]
  GI50: < 0.01 µM (active)
[3]
  GI50: 0.0102 µM (active)
[49]
  GI50: < 0.215 µM (active)
[4]
  GI50: < 0.01 µM (active)
[5]
  GI50: 0.0276 µM (active)
[6]
  GI50: < 0.01 µM (active)
[7]
  GI50: < 0.01 µM (active)
[50]
  GI50: 0.127 µM (active)
[8]
  GI50: 0.0466 µM (active)
[9]
  GI50: < 0.01 µM (active)
[51]
  GI50: 0.204 µM (active)
[10]
  GI50: 0.0306 µM
[11]
  GI50: 0.0759 µM (active)
[12]
  GI50: < 0.01 µM (active)
[52]
  GI50: < 0.01 µM (active)
[13]
  GI50: 0.0776 µM (active)
[14]
  GI50: 0.0316 µM (active)
[15]
  GI50: < 0.01 µM (active)
[16]
  GI50: < 0.01 µM (active)
[17]
  GI50: < 0.01 µM (active)
[18]
  GI50: < 0.01 µM (active)
[53]
  GI50: < 0.01 µM (active)
[54]
  GI50: 0.0327 µM (active)
[55]
  GI50: < 0.01 µM (active)
[19]
  GI50: 0.31 µM (active)
[20]
  GI50: < 0.01 µM (active)
[56]
  GI50: < 0.0131 µM (active)
[21]
  GI50: 0.0617 µM (active)
[57]
  GI50: 0.346 µM (active)
[22]
  GI50: < 0.01 µM (active)
[58]
  GI50: 0.0191 µM (active)
[23]
  GI50: < 0.0115 µM (active)
[59]
  GI50: 0.0142 µM (active)
[24]
  GI50: < 0.01 µM (active)
[60]
  GI50: < 0.01 µM (active)
[25]
  GI50: 0.0713 µM (active)
[61]
  GI50: 0.857 µM (active)
[26]
  GI50: < 0.01 µM (active)
[27]
  GI50: < 0.01 µM (active)
[28]
  GI50: < 0.01 µM (active)
[29]
  GI50: 0.0137 µM (active)
[62]
  GI50: < 0.01 µM (active)
[30]
  GI50: 0.0176 µM (active)
[31]
  GI50: < 0.01 µM (active)
[32]
  GI50: < 0.01 µM (active)
[33]
  GI50: 0.0236 µM (active)
[34]
  GI50: < 0.01 µM (active)
[35]
  GI50: 0.0242 µM (active)
[36]
  GI50: < 0.0103 µM (active)
[37]
  GI50: < 0.01 µM (active)
[38]
  GI50: 0.0233 µM (active)
[39]
  GI50: < 0.01 µM (active)
[40]
  GI50: < 0.01 µM (active)
[63]
  GI50: 0.0163 µM (active)
[41]
  GI50: 0.0551 µM (active)
[42]
  GI50: < 0.01 µM (active)
[43]
  GI50: < 0.01 µM (active)
[64]
  GI50: 0.0164 µM (active)
[44]
  GI50: 0.0113 µM (active)
[45]
  GI50: < 0.01 µM (active)
[65]
  GI50: < 0.0363 µM (active)
[66]
  GI50: < 0.0111 µM (active)
[46]
  GI50: < 0.0185 µM (active)
[67]
  GI50: < 0.01 µM (active)
[47]
  GI50: < 0.01 µM (active)
[48]
  GI50: 3.37 µM (inactive)
